Laboratory results reported in PMC8252567 (Angewandte Chemie (International Ed. in English), 2021).
Non-standard residues stand in square brackets, D forms with d. Residues, ends and D or L forms follow the SMILES beside them. *: point of attachment. FITC = O=C1OC2(c3ccc(O)cc3Oc3cc(O)ccc32)c2ccc(NC(=S)*)cc21; Nle = CCCC[C@H](N)C(=O)O; AEEA = NCCOCCOCC(=O)O; βAla = NCCC(=O)O

Target: T1, full length β-catenin (aa 1-781) (Homo sapiens, UniProt P35222)
T1 sequence (P35222 1-781): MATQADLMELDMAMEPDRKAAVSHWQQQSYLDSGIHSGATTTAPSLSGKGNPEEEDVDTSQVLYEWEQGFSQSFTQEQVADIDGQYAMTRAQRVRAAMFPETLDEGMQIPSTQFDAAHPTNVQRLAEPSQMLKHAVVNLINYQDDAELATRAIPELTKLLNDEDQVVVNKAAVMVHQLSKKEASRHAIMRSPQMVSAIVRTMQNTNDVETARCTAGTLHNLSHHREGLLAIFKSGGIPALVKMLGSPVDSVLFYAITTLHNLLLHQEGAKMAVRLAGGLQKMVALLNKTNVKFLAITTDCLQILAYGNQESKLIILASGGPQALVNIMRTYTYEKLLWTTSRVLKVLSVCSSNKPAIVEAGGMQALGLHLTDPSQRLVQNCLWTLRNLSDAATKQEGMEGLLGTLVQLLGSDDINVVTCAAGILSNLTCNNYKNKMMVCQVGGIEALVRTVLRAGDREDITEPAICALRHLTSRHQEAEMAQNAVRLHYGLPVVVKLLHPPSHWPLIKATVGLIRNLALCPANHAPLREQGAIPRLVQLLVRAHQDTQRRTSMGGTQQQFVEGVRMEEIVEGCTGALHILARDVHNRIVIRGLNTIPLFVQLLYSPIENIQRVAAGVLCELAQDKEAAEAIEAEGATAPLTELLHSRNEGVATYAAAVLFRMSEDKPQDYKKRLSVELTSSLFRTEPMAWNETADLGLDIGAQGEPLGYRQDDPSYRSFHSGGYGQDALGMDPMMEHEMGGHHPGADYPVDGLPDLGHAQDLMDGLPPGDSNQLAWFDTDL
Assay: Direct fluorescence polarization
Format: binding

Kd [µM] | SMILES
> 5 | CC(C)C[C@H](NC(=O)[C@H](CO)NC(=O)[C@H](CC(=O)O)NC(=O)COCCOCCNC(=S)Nc1ccc2c(c1)C(=O)OC21c2ccc(O)cc2Oc2cc(O)ccc21)C(=O)N[C@@H](CC(C)C)C(=O)N[C@H](C(=O)N[C@@H](Cc1ccccc1)C(=O)NCCC(=O)NCCC(=O)N[C@H](C(=O)N[C@H](C(=O)N[C@@H](CCCNC(=N)N)C(=O)N[C@@H](CC(N)=O)C(=O)N[C@@H](CC(=O)O)C(=O)N[C@H](C(N)=O)C(C)C)[C@@H](C)O)C(C)C)C(C)C [peptide 11] ({FITC-AEEA}-DSLLVF[βAla][βAla]VTRNDV-NH2)
> 5 | CCCC[C@H](NC(=O)[C@H](CC(C)C)NC(=O)[C@@H](NC(=O)[C@@H]1CCCN1C(=O)[C@H](C)NC(=O)[C@@H](NC(=O)[C@H](CC(=O)O)NC(=O)[C@H](CC(N)=O)NC(=O)[C@H](CCCNC(=N)N)NC(=O)[C@@H](NC(=O)[C@@H](NC(=O)CCNC(=O)CCNC(=O)[C@H](Cc1ccccc1)NC(=O)[C@@H](NC(=O)[C@H](CC(C)C)NC(=O)[C@H](CC(C)C)NC(=O)[C@H](CO)NC(=O)[C@H](CC(=O)O)NC(=O)COCCOCCNC(=S)Nc1ccc2c(c1)C(=O)OC21c2ccc(O)cc2Oc2cc(O)ccc21)C(C)C)C(C)C)[C@@H](C)O)C(C)C)[C@@H](C)O)C(=O)N[C@@H](CO)C(=O)N[C@H](C(=O)N1CCC[C@H]1C(=O)N[C@@H](CCC(N)=O)C(N)=O)C(C)C [peptide 9] ({FITC-AEEA}-DSLLVF[βAla][βAla]VTRNDVAPTL[Nle]SVPQ-NH2)
